In publication PMC10318527, “Utilization of dietary mixed-linkage β-glucans by the Firmicute Blautia producta” (The Journal of Biological Chemistry, 2023):

Key:
BpGH16MLG (BPGH16) = assay: Michaelis-Menten kinetics of BpGH16MLG on β-glucans (DNS assay); format: biochemical, Blautia producta ATCC 27340
Procedure: Then, reactions were terminated by boiling for 5 min. Enzymatic assays were determined with 3,5- dinitrosalicylic acid (DNS) assay ([85]). In brief, 0.05 g Na2SO3 and 1 g DNS were mixed in a 50 ml water-containing reagent bottle and stirred about 6 h using a magnetic stirrer. After that, 200 μl phenol was added and made up to 100 ml. A working solution of DNS was prepared by adding 50 μl glucose (20% (w/v) stock) in prepared 100 ml of reagent mixtures and immediately used for experiments without adding NaOH. 80 μl DNS reagent was added to the reaction mixtures and incubated at 100 °C for 10 min, followed by ice-cooling for 10 min. Consequently, recorded the developed color spectrophotometrically at 575 nm ([85]). A standard curve generated by different concentrations of maltose was used for determining released reducing sugars in each case.

[1] = tested on: β-glucan utilization locus of B. producta; assay: RT-qPCR of β-glucan utilization locus genes; format: cell-based, Blautia producta ATCC 27340
Procedure: Changes in the transcript expression levels of the β-glucan utilization locus of B. producta were performed by RT-qPCR. B. producta was initially cultured in 5 ml of GAM for 24 h and cells were spun down by centrifugation and washed three times with sterile PBS. […] Immediately, 300 μl saturated phenol with citrate buffer (pH 4.3, […] Sigma Aldrich) was added, and the mixed solution was incubated at 60 °C for 5 min with mild shaking. After that, it was centrifuged at 15,000 g for 5 min, and the upper aqueous phase was transferred into a new Eppendorf tube. It was mixed with three volumes of chilled ethanol and incubated for 30 min at -80 °C. The precipitate was then collected by centrifugation at the same speed, the pellet was washed with 70% ethanol twice, and the final white residue was dissolved in 100 to 500 μl of distilled water. The concentration of total RNA was calculated by a spectrophotometer at 260 nm. If a residual amount of DNA was observed, DNase-1 treatment was also given, following the manufacturer's instructions (AMPD1, Sigma Aldrich). About 2 μg total RNA was immediately used for reverse transcription using AccuScript High Fidelity cDNA Synthesis Kit (Agilent). RT-qPCR was performed in a 96-well plate on a CFX96 qPCR system (BioRad) using SYBR Green Master (BioRad), using the primers mentioned in Table S2. The qPCR reactions were executed in 10 μl, consisting of 5 μl of SYBR green mix, 30 ng of cDNA, and one pmol of each primer of a gene of the locus or 16S rRNA (Table S2). […] The 2^ˆ-ΔΔCt method calculated the expression of each gene and normalized data to 16S rRNA transcript level. Finally, the expression level of each gene was calculated as fold change compared with cultures of a minimal medium containing 1% glucose. Three technical replicates were used for bar generation of each gene expression; each bar represents average values and error bars indicate the standard errors of three technical replicates.

[2] = native BPGH16, DNS assay, pH 5.7, 37 °C
[3] = 1% barley β-glucan compared to glucose

## Barley β-glucan
BpGH16MLG (BPGH16); BpGH16MLG with barley MLG, no unit
  Km: 0.22 ± 0.04
BpGH16MLG (BPGH16); BpGH16MLG with barley MLG, no unit, in 1/s
  kcat: 62 ± 1.23
BpGH16MLG (BPGH16); [2]
  Km: 0.22 ± 0.04 mg/mL
  kcat: 62 ± 1.2 s⁻¹
[1]; [3]
  upregulation of bp1313 expression: 5.2 fold
  upregulation of bp1314 expression: 3.9 fold
[1]; barley MLG versus glucose
  upregulation of bp1316 expression: 4.7 fold
  upregulation of bp1317 expression: 5 fold
  upregulation of bp1318 expression: 4.5 fold
[1]; barley β-glucan compared to glucose
  fold change in expression of transcriptional regulator bp1315: 0.76 fold
